The subject of data set [1] is mouse psoriasis model induced by Imiquimod. Briefly: Mouse psoriasis model induced with imiquimod. The data set is classed as in vivo. The following applies: for relieving of inflammatory thickening of the model right ear: end point of 7-day administration. The protocol:
Animal strain: 28 male BALB/c mice, 6-8 weeks old, SPF environment, 12 hours light and dark cycle, 24-26 degrees Celsius. Blank group: no treatment, n=3; […] High-dose compound test group: 3.5 mg/kg drug intraperitoneal injection+5% imiquimod ointment, n=5; Low-dose compound test group: 0.8 mg/kg drug intraperitoneal injection+5% imiquimod ointment, n=5; Combined drugs test group: 0.8 mg/kg drug intraperitoneal injection+0.0025% PGE2 (administered epidermally in 75% ethanol)+5% imiquimod ointment, n=5; Day 0: anesthetized the mouse, shaved the back with an area about 2*3 cm; Day1-7: every other day, measured the mouse body weight, left and right ear thickness, and observed the skin to obtain a score; Day7: killed the mouse, sampled the back skin and fixed in 4% PFA solution for H&E staining; Model Group Induced with Imiquimod: Day 0: anesthetized the mouse, shaved the back with an area about 2*3 cm; Day1-7: every other day, measured the mouse body weight, left and right ear thickness, and observed the skin to obtain a score; […] Massaged moderately against the direction of the hair to help absorption; Day1-7: […] Massaged moderately against the direction of the hair to help absorption; Day7: killed the mouse, sampled the back skin and fixed in 4% PFA solution for H&E staining; Day 0: anesthetized the mouse, shaved the back with an area about 2*3 cm; Day1-7: every other day, measured the mouse body weight, left and right ear thickness, and observed the skin to obtain a score; […] Day1-7: then injected intraperitoneally 3.5 mg/kg in 200 μL sterile DPBS; Day1-7: then applied 62.5 mg of imiquimod ointment on the shaved area on the back of each mouse, applied 250 μg of imiquimod ointment on the inside and outside of the right ear, and massaged moderately against the direction of hair to help absorption; Day7: killed the mouse, sampled the back skin and fixed in 4% PFA solution for H&E staining; Day 0: anesthetized the mouse, shaved the back with an area about 2*3 cm; Day1-7: every other day, measured the mouse body weight, left and right ear thickness, and observed the skin to obtain a score; […] Day1-7: then injected intraperitoneally 0.8 mg/kg in 200 μL sterile DPBS; Day1-7: then applied 62.5 mg of imiquimod ointment on the shaved area on the back of each mouse, applied 250 μg of imiquimod ointment on the inside and outside of the right ear, and massaged moderately against the direction of hair to help absorption; Day7: killed the mouse, sampled the back skin and fixed in 4% PFA solution for H&E staining; Group Treated with Compound in Combination with PGE2: Day 0: anesthetized the mouse, shaved the back with an area about 2*3 cm; Day1-7: every other day, measured the mouse body weight, left and right ear thickness, and observed the skin to obtain a score; Day1-7: […] Day-7: then injected intraperitoneally 0.8 mg/kg in 200 μL sterile DPBS; Day1-7: one hour after PGE2 administration, applied 62.5 mg of imiquimod ointment on the shaved area on the back of each mouse, and applied 250 μg of imiquimod ointment on the inside and outside of the right ear. […] The area was fixed in the disease model and was not considered, and the other three aspects were quantified as follows: 0=asymptomatic, 1=mild, 2=moderate, 3=significant, 4=very significant; Changes of the thickening of the ear; Body weight; Skin histological changes (H&E staining).

The test system of data set [2] is mouse spleen Naïve CD4+ T cells. Briefly: Compound cytotoxicity detection, lactate dehydrogenase (LDH) release. The data set is classed as cell-based. As to conditions: 4 hours incubation; FIG. 9. The protocol:
1) Separated fresh spleens from adult C57BL/6 female mice (8-12 weeks old), and ground and filtered through a […] nylon cell strainer to obtain a single cell suspension in pre-cooled PBS; 2) Seeded primary CD4+ T cells in 96-well plate with a density of 1×10^5/90 μL. The medium was 1640 medium (serum-free); 3) Added the serially diluted compounds formulated in a volume of 10 μL to designated wells; 4) Incubated the cells for 4 hours at 37 degrees Celsius and 5% CO2; 5) Detected lactate dehydrogenase (LDH) release according to CytoTox-one Homogeneous Membrane Integrity Assay Kit instructions.

The mark [3] stands for this setting: high-dose group 3.5 mg/kg intraperitoneal.
Setting [4] is: low-dose group 0.8 mg/kg intraperitoneal.

With `C=C[C@@]1(C)CC(=O)C2(O)[C@@]3(C)C(O)CCC(C)(C)C3[C@H](OC(=O)CCN(C)C)[C@H](OC(C)=O)[C@@]2(C)O1.Cl` (stereo partly drawn) [6-[3-(dimethylamino)propionyl]forskolin hydrochloride], in data set [1] (day 7, compared with the model group, FIG. 20), the “thickness of epidermis and stratum corneum of back skin (H&E staining)” value was “different degrees of thickness reduction”. For the same molecule, in data set [1] (setting [3]), the “day of administration on which disease alleviation showed (back skin psoriasis-like index score)” value is 3 days and the “relieving of inflammatory thickening of the model right ear” value turned out to be 39%. Further, in data set [1] (setting [4]), the “day of administration on which the effect began (back skin psoriasis-like index score)” value turned out to be 5 days and the “relieving of inflammatory thickening of the model right ear” value is given as 30%. Moreover, the “toxicity to CD4+ T cells (lactate dehydrogenase release)” value in data set [2] was “not significantly toxic”.

Values taken from patent publication US20220079915A1, “IMMUNOSUPPRESSIVE PHARMACEUTICAL COMPOSITION AND APPLICATION THEREOF” (Shanghai Archeus Biotech Co., Ltd., priority 2018, published 2022).
